# Measured values as given in patent US20150265608A1, “Compounds for Treating Rac-GTPase Mediated Disorder” (Children's Medical Center Corporation, priority 2012, published 2015).
# Experiments:
# [1] = test system: leukemia cell lines; experiment: MTS assay of inhibition of proliferation; type: cell-based
# Protocol: The 100 compounds selected from the initial in silico screen were assayed for inhibition of proliferation in two leukemia cell lines, SEM and REH, by MTS ((3-(4,5-dimethylthiazol-2-yl)-5-(3-carboxymethoxyphenyl)-2-(4-sulfophenyl)-2H-tetrazolium)) assay. The cells for the MTS assay were spun down and re-suspended. The cell suspension was then divided and the compound to be tested added in desired concentrations and subsequently plated. Following an incubation period, MTS reagent (Promega CellTiter 96® Aqueous Non-Radioactive Cell Proliferation Assay) was added and allowed to incubate. The absorbance is subsequently measured at 490 nm using a plate reader.
# The five lead compounds, i.e. Compounds 1-5, were further analyzed for their effect on cell proliferation at various doses on different leukemia cells. First, each the five compounds was screened in nine leukemia cell lines: REH, SEM, MV411, RS411, Jurkat, Raji, Nomo-1, Naim6, and ML2 at a concentration of 20 μM. Four of the lead compounds, Compounds 2, 3, 4 and 5 were further tested in SEM and MV411 cells at a range of concentrations for inhibition of proliferation. In order to quantitate the percentage inhibition of cell proliferation, MTS analysis was completed as described in Example 2 above.
# [2] = target: T1, Rac1-GTPase (Homo sapiens, UniProt P63000); experiment: pull down assay for RAC-GTP with Western blot; type: cell-based; settings: exposure of the cells for 5 and 60 minutes, FIG. 9b
# T1 construct: The assay initially required treatment of cells followed by pull down and analysis with Western blot; endogenous in cells; host or cells: Leukemia cells
# Protocol: To determine which of these compounds should be further pursued, a biochemical pull down assay was performed to confirm specific inhibition of Rac activation indicated by disruption of the interaction between Rac and […]. The assay initially required treatment of cells followed by pull down and analysis with Western blot. The cells were first starved in serum free media for 2 hours. They were then re-suspended in serum-containing medium and inhibitors added at desired concentration. Following incubation for the desired length of time, the cells were pelleted and lysed with Magnesium Lysis Buffer (Millipore Mg^2+lysis/wash buffer). The Rac protein and any bound proteins were then collected with Pak Beads (Millipore Rac/cdc42 Assay Reagent (PAK-1 PBD, agarose). Bound protein was subsequently removed with lysis buffer and subject to Western Blot analysis.
# Additional analysis of Compound 5 was performed to assess its effects on apoptosis, cell death and RAC-GTPase interaction. FIG. 9a indicates the effect of OSSK—373747 on the apoptotic pathway in SEM cells. Apoptotic cells and dead cells following incubation of SEM cells with 20 and 80 μM of Compound 5 were analyzed using Annexin V staining.
# [3] = test system: normal bone marrow hematopoietic progenitor cells; experiment: clonogenic assay in methylcellulose (colony formation) for toxicity; type: cell-based, mouse; settings: compared to the other compounds
# Protocol: Four of the lead compounds (Compounds 2, 3, 4, and 5) were screened for toxicity in normal bone marrow hematopoietic progenitor cells. Average colonies formed from normal BL-6 mouse bone marrow were counted following exposure of the four lead compounds individually at concentrations of 5 μM, 20 μM or 80 μM in methylcellulose. A clonogenic assay in methylcellulose was performed to assess colony formation. MethoCult base (StemCell Tech #03134) was mixed with the following reagents: fetal bovine serum, bovine serum albumin, IL-3, mSCF, EPO, beta-mercaptoethanol, penicillin, streptomycin, L-glutamine, and IMDM, and added to normal bone marrow cells. The cells in suspension are then plated and resulting colonies counted after 7 days.
# [4] = in vivo tolerability in NSG mice xenografted with MV411 cells
# Protocol: In vivo tolerability of Compound 7 was evaluated in NSG mice xenografted with MV411 cells stably expressing luciferase via constitutive promoter. Compound 7 was prepared in a solution of 10% NMP, 5% CremaphorEL, 30% PEG200, and 55% D5W and administered PO at a dose of 50, 100, 250, or 500 mg/kg once each day for a period of 7 days. Five mice were utilized for each test group.
# Body weight was recorded 3 times/week upon dosing. On treatment day 6, the mice were imaged via bioluminescence imaging to ensure the presence of the xenografted MV411 leukemia cells. Following the final dose, dose 7, at least 100 μL of blood was drawn via submandibular bleed for plasma collection. Eight hours following the last dose, cardiac puncture blood draw was performed for plasma collection.
smiles,measurement,setting,value
O=C(CSc1nc2ccccc2n1Cc1ccccc1)N/N=C/c1ccccc1O [Compound 5],efficacy (inhibition of leukemia cell proliferation),"[1]; summary of prior experiments, compared to the other compounds",strong efficacy
same,GTPase and Rac interaction,[2],decrease in GTPase and Rac interaction
same,toxicity to the normal cells (average colonies from normal mouse bone marrow),"[3]; 20 μM or 80 μM, FIG. 8",least toxicity
same,toxicity to normal bone marrow cells,[3]; summary statement,low toxicity
Cc1nn(Cc2ccc(F)cc2)c2sc(C(=O)Nc3ccc4c(c3)OCO4)cc12 [Compound 7],in vivo tolerability,"[4]; PO 50, 100, 250 or 500 mg/kg once each day for 7 days",tolerable
same,change in weight of animals,"[4]; PO 50, 100, 250 or 500 mg/kg over a 7 day period, FIG. 19b",no progressive weight loss
NNC(=O)CSc1nc2ccccc2n1Cc1ccccc1 [Compound 12],inhibitory activity on leukemia cell lines,[1]; in vitro,retains inhibitory activity
